Data on four molecules can be found in BindingDB's records for doi:10.1124/jpet.105.083337 (Neurocrine Biosciences, 2005).

The target of this experiment is Melanocortin receptor 4 (Homo sapiens, UniProt P32245).
Chain of Melanocortin receptor 4 (P32245 whole entry): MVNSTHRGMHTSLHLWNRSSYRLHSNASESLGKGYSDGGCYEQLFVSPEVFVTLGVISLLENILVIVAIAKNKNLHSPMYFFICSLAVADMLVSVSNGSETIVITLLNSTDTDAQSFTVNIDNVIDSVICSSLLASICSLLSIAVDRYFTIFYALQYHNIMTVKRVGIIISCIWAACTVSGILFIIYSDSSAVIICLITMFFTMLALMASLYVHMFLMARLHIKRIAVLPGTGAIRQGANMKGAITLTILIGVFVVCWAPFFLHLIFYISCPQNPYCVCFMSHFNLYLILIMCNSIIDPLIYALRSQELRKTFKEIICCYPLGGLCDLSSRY
As a reminder, the Ki is a measure of affinity in units of concentration, obtained from inhibition or displacement. A higher Ki goes with a looser hold on the target. Turning to `CN(Cc1cccnc1)Cc1ccccc1N1CCN(C(=O)[C@@H](Cc2ccc(Cl)cc2)NC(=O)[C@H]2Cc3ccccc3CN2)CC1`, the affinity, expressed as Ki, was 0.0741 µM.

In turn, `CC(Nc1cc[nH]c1)c1ccccc1N1CCN(C(=O)[C@@H](Cc2ccc(Cl)cc2)NC(=O)[C@H]2Cc3ccccc3CN2)CC1` (some centres undefined) [NBI-58704] showed a Ki of 0.0135 µM.

`C[C@@H]1CN(Cc2ccccc2N2CCN(C(=O)[C@@H](Cc3ccc(Cl)cc3)NC(=O)[C@H]3Cc4ccccc4CN3)CC2)[C@@H](C)CN1` [NBI-56297] showed a Ki of 0.02 µM.

`CN(Cc1ccccc1N1CCN(C(=O)[C@@H](Cc2ccc(Cl)cc2)NC(=O)[C@H]2Cc3ccccc3CN2)CC1)C1CCCNC1` (some centres undefined) [NBI-58702] displayed a Ki of 0.00631 µM.
